Key:
[1] = biological target: T1, recombinant GTase A911 (Arabidopsis thaliana, UniProt O22182); test: Kinetic studies (Michaelis-Menten) on recombinant GTase producing glucose esters; settings: glucose ester formation
T1 sequence (O22182 1-456): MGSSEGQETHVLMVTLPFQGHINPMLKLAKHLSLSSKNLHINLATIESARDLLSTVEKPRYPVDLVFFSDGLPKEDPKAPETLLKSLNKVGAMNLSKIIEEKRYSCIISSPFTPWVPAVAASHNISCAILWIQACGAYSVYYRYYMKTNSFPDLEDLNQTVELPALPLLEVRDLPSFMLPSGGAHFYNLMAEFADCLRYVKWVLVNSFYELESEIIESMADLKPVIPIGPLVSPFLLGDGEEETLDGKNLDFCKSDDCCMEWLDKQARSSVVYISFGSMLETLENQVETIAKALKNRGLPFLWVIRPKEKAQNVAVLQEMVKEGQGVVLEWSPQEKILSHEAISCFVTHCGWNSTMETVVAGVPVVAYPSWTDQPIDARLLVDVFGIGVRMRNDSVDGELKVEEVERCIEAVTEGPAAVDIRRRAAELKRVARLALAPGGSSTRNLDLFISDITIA

[2] = biological target: T2, recombinant GTase A42 (Arabidopsis thaliana, UniProt O23401); test: as above; type: biochemical; settings: glucose ester formation
T2 construct: made in house; host or cells: E. coli
T2 sequence (O23401 1-479): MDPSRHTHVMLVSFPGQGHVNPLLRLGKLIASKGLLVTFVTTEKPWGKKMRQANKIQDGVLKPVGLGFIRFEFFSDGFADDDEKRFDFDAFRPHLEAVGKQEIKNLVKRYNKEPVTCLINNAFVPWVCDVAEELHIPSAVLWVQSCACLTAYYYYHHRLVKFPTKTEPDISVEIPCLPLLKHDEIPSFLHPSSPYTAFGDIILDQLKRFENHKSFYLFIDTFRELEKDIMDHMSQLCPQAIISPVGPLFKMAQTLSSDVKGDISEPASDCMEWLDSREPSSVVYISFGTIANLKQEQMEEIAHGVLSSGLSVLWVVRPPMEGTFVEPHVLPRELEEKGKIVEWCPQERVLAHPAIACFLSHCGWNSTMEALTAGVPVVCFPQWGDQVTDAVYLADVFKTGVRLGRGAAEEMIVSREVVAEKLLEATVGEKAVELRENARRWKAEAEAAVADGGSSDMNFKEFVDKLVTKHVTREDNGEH

For `COc1cc(/C=C/C(=O)O)ccc1O` [Ferulic acid, ferulic acid], the “Vmax (A911)” value [1] was 6.91 nkat/mg and the “Vmax (A42)” value [2] was 18.35 nkat/mg.

Source: patent US7335814B2, “Transgenic cells expressing glucosyltransferase nucleic acids” (The University of York, priority 2000, dated 2008)
